Measurements reported in patent US20120130060A1, “Modified antisense oligopeptides with anticancer properties and method of obtaining them” (priority 2010, published 2012).

Assays:
[1] = ED50 and therapeutic index, comparative characteristics of Anticanum and Taxotere; assay type: in vivo
[2] = Average lethal intravenous dose in rats; conditions: both, rat, in vivo
Text: The calculation of the average lethal dose was made according to B. M. Shtabskiy's methods with the use of the equation:
where: • X1 and X2 are the values of the two extreme of the three doses studied that have an effect on more or less than 50% of the animals; the third dose is the intermediate; • Y1 ? Y2 are the lethality percentages corresponding to doses X1 and X2; • ΣY— is the sum of the three doses studied; the number of doses used in the calculations is equal to 3.
Then d, the average margin of error for the average lethal dose was found through use of the Miller-Tainter formula:
N is the total number of animals in the groups in which even one animal died or survived, and the confidence ranges were established.

**Q.** With `CC(=O)O[C@@]12CO[C@@H]1C[C@H](O)[C@@]1(C)C(=O)[C@H](O)C3=C(C)[C@@H](OC(=O)[C@H](O)[C@@H](NC(=O)OC(C)(C)C)c4ccccc4)C[C@@](O)([C@@H](OC(=O)c4ccccc4)[C@H]21)C3(C)C` [Taxotere] as the compound, how does the ED50 [1] read?
**A.** 0.035 mg/kg

**Q.** And the LD50 [2]?
**A.** 0.12 mg/kg
